Measured values published in publication PMC7397249, “Properly Substituted Cyclic Bis-(2-bromobenzylidene) Compounds Behaved as Dual p300/CARM1 Inhibitors and Induced Apoptosis in Cancer Cells” (Molecules, 2020).

What was measured:
[1] = target: T1, p300 (Homo sapiens, UniProt Q09472); test: HotSpot HAT activity assay, p300; assay type: biochemical; details: 10-dose, triplicate, from 200 μM; histone H3, [acetyl-3H]-acetyl-CoA
T1 construct: p300 (aa 1284–1673, 30 nM); purchased Reaction Biology Corporation
T1 sequence (Q09472 1284-1673): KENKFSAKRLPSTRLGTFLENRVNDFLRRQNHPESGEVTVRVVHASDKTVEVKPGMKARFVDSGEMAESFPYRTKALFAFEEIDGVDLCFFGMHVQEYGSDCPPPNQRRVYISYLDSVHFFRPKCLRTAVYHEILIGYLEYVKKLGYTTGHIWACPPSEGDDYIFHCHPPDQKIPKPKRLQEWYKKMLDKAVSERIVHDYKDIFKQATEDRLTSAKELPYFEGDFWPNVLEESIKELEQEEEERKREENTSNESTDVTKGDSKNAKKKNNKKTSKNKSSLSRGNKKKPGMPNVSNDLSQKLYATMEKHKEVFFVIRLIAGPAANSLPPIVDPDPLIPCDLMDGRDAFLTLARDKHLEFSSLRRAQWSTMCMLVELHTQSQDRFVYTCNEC
Method: (§1) The newly synthesized compounds 4a–n were tested to determine their effects against acetylation and methylation epigenetic targets. First, 4a–n were screened in vitro against the two HAT enzymes p300 and PCAF. […] To determine the activity against SIRT1 and -2, 4a–n were tested starting from 200 μM solutions using a modified Fluor de Lys fluorescence-based assay with amino acids 379–382 (Arg-His-Lys-Lys(Ac)) of human p53 conjugated with aminomethylcoumarin as substrate and NAD^+ as co-substrate. […] Furthermore, 4a–n were tested against a human five-membered Polycomb repressive complex 2 (PRC2) containing EZH2, embryonic ectoderm development (EED), suppressor of zeste 12 (SUZ12), RbAp48, and adipocyte enhancer-binding protein (AEBP2), to assess their capability to inhibit the catalytic unit EZH2.
(§2) The effect of tested derivatives on the catalytic activity of p300 and PCAF was determined in a HotSpot HAT activity assay by Reaction Biology Corporation (Malvern, PA, USA) according to the company’s standard operating procedure. In brief, the recombinant catalytic domains of PCAF (aa 492–658, 250 nM) or p300 (aa 1284–1673, 30 nM) were incubated with histone H3 as substrate (5 µM) and [Acetyl-^3H]-Acetyl Coenzyme A (3 µM) as an acetyl donor in reaction buffer (50 mM Tris-HCl (pH 8.0), 50 mM NaCl, 0.1 mM EDTA, 1 mM DTT, 1 mM PMSF, 1% DMSO) for 1 h at 30 °C in the presence or absence of a dose titration of the compounds. The reaction mixture was delivered to filter-paper for detection. IC50 values were analyzed using Excel and GraphPad Prism 6.0 software (GraphPad Software Inc., San Diego, CA, USA). The experiments for p300 were performed in triplicate.

[2] = target: T2, PCAF (Homo sapiens, UniProt Q92831); test: HotSpot HAT activity assay, PCAF; assay type: biochemical; details: 10-dose, from 200 μM; histone H3, [acetyl-3H]-acetyl-CoA
T2 construct: PCAF (aa 492–658, 250 nM); purchased Reaction Biology Corporation
Method: as §1, §2

[3] = target: T3, CARM1 (Homo sapiens, UniProt Q86X55); test: CARM1 assay (histone H3, 3H-SAM); assay type: biochemical
T3 sequence (Q86X55 1-608): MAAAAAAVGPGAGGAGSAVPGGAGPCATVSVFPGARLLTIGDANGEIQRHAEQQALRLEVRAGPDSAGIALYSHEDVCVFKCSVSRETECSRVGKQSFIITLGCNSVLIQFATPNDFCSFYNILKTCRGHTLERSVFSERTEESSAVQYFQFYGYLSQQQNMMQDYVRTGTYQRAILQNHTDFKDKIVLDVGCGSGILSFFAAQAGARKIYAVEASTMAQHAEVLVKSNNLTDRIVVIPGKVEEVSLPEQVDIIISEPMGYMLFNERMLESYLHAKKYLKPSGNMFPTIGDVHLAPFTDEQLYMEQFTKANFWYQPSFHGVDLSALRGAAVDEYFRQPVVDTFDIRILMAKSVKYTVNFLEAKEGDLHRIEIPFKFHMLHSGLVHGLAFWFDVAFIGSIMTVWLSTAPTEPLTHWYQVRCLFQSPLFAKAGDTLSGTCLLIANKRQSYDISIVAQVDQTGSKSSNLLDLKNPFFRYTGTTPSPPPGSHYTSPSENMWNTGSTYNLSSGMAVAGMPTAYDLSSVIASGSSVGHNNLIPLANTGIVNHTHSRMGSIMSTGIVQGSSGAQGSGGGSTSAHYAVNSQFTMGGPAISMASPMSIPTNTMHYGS
Method: Histone H3 (5 μM) was added in freshly prepared reaction buffer (50 mM Tris-HCl (pH 8.5), 5 mM MgCl2, 50 mM NaCl, 0.01% Brij35, 1 mM DTT, 1% DMSO). CARM1 was delivered into the substrate solution and the mixture was mixed gently. Afterwards, the tested compounds dissolved in DMSO were delivered into the enzyme/substrate reaction mixture by using Acoustic Technology (Echo 550, LabCyte Inc. Sunnyvale, CA) in nanoliter range, and 1 µM ^3H-SAM was also added into the reaction mixture to initiate the reaction. The reaction mixture was incubated for 1 h at 30 °C and then it was delivered to filter-paper for detection. The data were analyzed using Excel and GraphPad Prism software for IC50 curve fits. The experiments were performed in triplicate.

[4] = test system: MCF-7 cells; test: Cell cycle and apoptosis (sub-G1) analysis by FACS in MCF-7 cells; assay type: cell-based, human; details: 5 μM, 30 h
Method: Compounds 4a–n were tested at 5 μM for 30 h in NB4 […] and U937 AML cells among hematological cancers, and in MCF-7 breast cancer and SH-SY5Y neuroblastoma cells among solid cancers, to determine their effects in cell cycle and apoptosis induction.
In the same cell lines, the induction of apoptosis has been evaluated through the percentage of the sub-G1 peaks.
For colorimetric exclusion, the cells (2 × 10^5 cells/mL) were plated in multiwells in triplicate. After stimulations at different times and concentrations, cells were diluted in the ratio 1:1 in Trypan Blue (Sigma) and counted with an optical microscope. For cell cycle analyses, cells were plated (2 × 10^5 cells/mL) and were harvested, centrifuged at 1200 rpm for 5 min and resuspended in 500 μL of a hypotonic solution containing 1× PBS, Sodium Citrate 0.1%, 0.1% NP-40, RNAase A and […] Propidium Iodide (PI). After 30 min at room temperature (RT) in the dark, samples were acquired by FACS-Calibur (BD Bioscences, San Jose, CA, USA) using CellQuest software (BD Biosciences). The percentage in different phases of the cell cycle was determined by ModFit LT V3 software (Verity). All experiments were performed in triplicate. Cell death was measured as percentage of cells in sub-G1 phase as in [30].

T2 sequence (Q92831 492-658): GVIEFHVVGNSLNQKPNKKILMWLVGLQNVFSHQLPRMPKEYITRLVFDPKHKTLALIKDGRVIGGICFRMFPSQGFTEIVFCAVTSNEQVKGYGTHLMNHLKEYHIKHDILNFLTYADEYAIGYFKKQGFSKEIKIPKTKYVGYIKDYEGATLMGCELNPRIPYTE

Compound | IC50 [1] | IC50 [2] | IC50 [3] | cell cycle: block in G1/S phase with almost total absence of cells in the G2/M phase [4] | cell cycle: block in G1/S phase with almost total absence of cells in the S phase [4] | induction of apoptosis, % sub-G1 peaks [4]
O=C1/C(=C/c2ccccc2Br)CN(CCCc2ccccc2)C/C1=C\c1ccccc1Br [Compound 4g, 3,5-Bis((E)-2-bromobenzylidene)-1-(3-phenylpropyl)piperidin-4-one] | 40.7 ± 2.39 µM | > 200 µM | 12.6 ± 2.6 µM | – | – | –
O=C1/C(=C/c2ccccc2Br)CN(C(=O)C=Cc2ccccc2)C/C1=C\c1ccccc1Br [Compound 4n, 3,5-Bis((E)-2-bromobenzylidene)-1-cinnamoylpiperidin-4-one] | 1.23 ± 0.29 µM | > 200 µM | 7.14 ± 2.54 µM | almost total absence of cells | almost total absence of cells | –
O=C1/C(=C/c2ccccc2Br)CN(CCCC(=O)c2ccccc2)C/C1=C\c1ccccc1Br [Compound 4j, 3,5-Bis((E)-2-bromobenzylidene)-1-(4-oxo-4-phenylbutyl)piperidin-4-one] | 2.13 ± 1.35 µM | > 200 µM | 4.8 ± 1.72 µM | almost total absence of cells | – | –
O=C1/C(=C/c2ccccc2Br)CN(CC(=O)c2ccccc2)C/C1=C\c1ccccc1Br [Compound 4h, 3,5-Bis((E)-2-bromobenzylidene)-1-(2-oxo-2-phenylethyl)piperidin-4-one] | 1.03 ± 0.22 µM | > 200 µM | 5.52 ± 0.78 µM | – | – | around 25%
O=C1/C(=C/c2ccccc2Br)CN(Cc2ccccc2)C/C1=C\c1ccccc1Br [Compound 4e, 1-benzyl-3,5-bis((E)-2-bromobenzylidene)piperidin-4-one] | 2.19 ± 0.77 µM | > 200 µM | 6.5 ± 0.86 µM | almost total absence of cells | – | –
O=C1/C(=C/c2ccccc2Br)CN(C(=O)CCc2ccccc2)C/C1=C\c1ccccc1Br [Compound 4m, 3,5-Bis((E)-2-bromobenzylidene)-1-(3-phenylpropanoyl)piperidin-4-one] | 0.46 ± 0.1 µM | > 200 µM | 0.79 ± 0.06 µM | almost total absence of cells | – | –
O=C1/C(=C/c2ccccc2Br)CN(CCc2ccccc2)C/C1=C\c1ccccc1Br [Compound 4f, 3,5-Bis((E)-2-bromobenzylidene)-1-phenethylpiperidin-4-one] | 30.2 ± 2.71 µM | > 200 µM | 18.5 ± 0.9 µM | – | – | –
O=C1/C(=C/c2ccccc2Br)CN(C(=O)c2ccccc2)C/C1=C\c1ccccc1Br [Compound 4k, 1-Benzoyl-3,5-bis((E)-2-bromobenzylidene)piperidin-4-one] | 2.09 ± 0.79 µM | > 200 µM | 1.33 ± 0.14 µM | – | almost total absence of cells | –
O=C1/C(=C/c2ccccc2Br)CN(C(=O)Cc2ccccc2)C/C1=C\c1ccccc1Br [Compound 4l, 3,5-Bis((E)-2-bromobenzylidene)-1-(2-phenylacetyl)piperidin-4-one] | 0.45 ± 0.03 µM | > 200 µM | 0.43 ± 0.12 µM | – | almost total absence of cells | –
